Experimental data reported in patent US8404738B2 (Hoffmann-La Roche Inc., priority 2011, dated 2013).
Read-outs that look alike come from different tables or passages of the source.

Assays:
HDAC6 = target: T1, HDAC6 (Homo sapiens, UniProt Q9UBN7); experiment: Tubulin acetylation cytoblot assay (A549 cells); assay type: cell-based; details: 17-18 h incubation, tubulin acetylation as marker of HDAC6 inhibition, read-out: Tub-Ac EC50
T1 construct: endogenous in cells; host or cells: A549 cells
T1 sequence (Q9UBN7 1-1215): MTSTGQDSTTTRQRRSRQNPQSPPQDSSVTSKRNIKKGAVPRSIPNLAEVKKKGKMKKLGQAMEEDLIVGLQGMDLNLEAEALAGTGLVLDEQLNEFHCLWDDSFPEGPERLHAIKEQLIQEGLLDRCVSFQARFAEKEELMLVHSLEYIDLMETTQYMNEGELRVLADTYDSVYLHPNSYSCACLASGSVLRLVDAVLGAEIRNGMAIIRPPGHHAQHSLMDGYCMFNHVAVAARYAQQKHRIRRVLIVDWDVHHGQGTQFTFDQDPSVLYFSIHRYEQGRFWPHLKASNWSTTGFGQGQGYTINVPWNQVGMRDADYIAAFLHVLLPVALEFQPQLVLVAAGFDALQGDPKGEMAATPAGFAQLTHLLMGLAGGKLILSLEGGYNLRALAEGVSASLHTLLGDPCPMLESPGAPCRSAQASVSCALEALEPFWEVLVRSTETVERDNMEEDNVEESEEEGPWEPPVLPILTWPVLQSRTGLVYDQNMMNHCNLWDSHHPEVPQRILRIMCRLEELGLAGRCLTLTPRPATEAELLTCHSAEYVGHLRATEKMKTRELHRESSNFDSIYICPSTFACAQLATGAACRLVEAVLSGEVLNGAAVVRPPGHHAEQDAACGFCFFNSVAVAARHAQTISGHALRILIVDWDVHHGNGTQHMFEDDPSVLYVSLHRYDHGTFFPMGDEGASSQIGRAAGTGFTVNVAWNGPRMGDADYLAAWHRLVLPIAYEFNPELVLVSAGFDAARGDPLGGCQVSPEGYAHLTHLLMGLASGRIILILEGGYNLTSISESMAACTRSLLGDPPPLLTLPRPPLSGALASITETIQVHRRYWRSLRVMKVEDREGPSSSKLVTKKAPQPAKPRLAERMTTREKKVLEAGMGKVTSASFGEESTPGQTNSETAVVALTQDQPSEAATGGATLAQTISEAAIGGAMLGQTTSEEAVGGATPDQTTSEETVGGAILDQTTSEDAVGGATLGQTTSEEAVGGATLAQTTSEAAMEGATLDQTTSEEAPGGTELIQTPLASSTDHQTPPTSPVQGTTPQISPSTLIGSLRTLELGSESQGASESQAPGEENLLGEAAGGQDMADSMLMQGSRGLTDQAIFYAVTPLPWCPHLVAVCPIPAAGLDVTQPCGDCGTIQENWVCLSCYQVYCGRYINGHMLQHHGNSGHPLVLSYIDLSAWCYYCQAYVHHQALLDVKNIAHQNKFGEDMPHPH
Protocol: Tubulin Acetylation Induction by Novel Compounds: Tubulin Acetylation Cytoblot Assay.
Tubulin acetylation is a PD marker for HDAC6 inhibition. The extent of tubulin acetylation represents the inhibitory effect on HDAC6.
Novel compounds were tested for their ability to inhibit HDAC6 using a cell-based deacetylation assay. Tubulin acetylation was detected by the anti-acetylated tubulin antibody (Sigma) and horse radish peroxidase (HRP) conjugated secondary antibody (KangChen Bio. Tech.). […] 20 μl of diluted compound solution was transferred to the cell culture plate and incubated for 17-18 h. After medium removal and fixation by formaldehyde (3.7% paraformaldehyde in TBS), the cells in the plates were treated with 180 μl of −20° C. MeOH and incubated for 5 min at rt. The cell lysis was incubated with 75 μl of primary anti-acetylated tubulin antibody and secondary HRP conjugated antibody solution (1:750 anti-acetylated tubulin, 1:750 HRP conjugated anti-mouse IgG in antibody dilution buffer not containing sodium azide) for 4 h at 4° C. By adding the HRP substrate, enhanced chemiluminescence (ECL) reagent (GE Healthcare) generated luminescence corresponding to the level of tubulin acetylation. So that 75 μl of ECL was added into the wells and the luminescence from each well was immediately quantified by the plate reader. Based on the luminescence reading, the Tub-Ac EC50s against HDAC6 of the tested compounds were calculated by plotting the curve with XLfit4.0 software. Inhibition %=[signal(sample)−Mean(bottom)]×100/[Mean(top)−Mean(bottom)]

[1] = system: p21 promoter-luciferase construct; experiment: p21 reporter gene induction (HeLa cells, p21 promoter-luciferase construct); details: for p21 RP3: relative gene level of p21 compared to MS275 at 3 μM; for p21 RP10: relative level of p21 compared to MS275 at 10 μM; for p21 RP30: relative level of p21 compared to MS275 at 30 μM;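 on all read-outs here: transfected HeLa cells exposed to compound for 15 h, luciferase luminescence read from lysates, p21 promoter lacks p53 site, proxy for cellular HDAC1/2/3 inhibition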
Protocol: As a surrogate for in-cell HDAC1/2/3 inhibition, p21 induction was used as a counterscreen to evaluate the selectivity of the compounds in the present invention toward HDAC6 or HDAC8.
The novel compounds of the present invention were tested for their ability to induce p21 gene expression using a reporter gene assay involving HeLa cells transfected with a p21 promoter-luciferase construct. The p21 promoter contained the Sp1/Sp3 binding site for HDAC but not the upstream p53 binding site. Briefly, the day before transfection, HeLa cells were seeded at 11,000 cells/well in a 96-well culture plate and incubated at 37° C. in 5% CO2 overnight. A transfection media was prepared prior to transfection according to the following procedure: (1) 5 μl serum-free DMEM, 0.15 μl Fugene 6 reagent, 40 ng p21-luc, 10 ng GFP were mixed gently and incubated at rt for 30 minutes; (2), then 98 μl DMEM (with 10% FBS, 1% penicillin and streptomycin) was added to the DNA: Fugene 6 reagent complex and mixed gently. For transfection, the medium was removed and replaced with 100 μl/well transfection media which was prepared according to the procedure above. After incubating the cells for 24 hours at 37° C. in 5% CO2, fresh media and test compounds were added to the wells and the cells further incubated for 15 hours at 37° C. in 5% CO2. Cells were lysed by adding 80 μl/well of a cell culture lysis reagent (Promega). 50 μl of each lysate was taken for GFP detection using an excitation wavelength of 486 nm and detection at 527 nm. 100 μl luciferase assay reagent (Promega) was then added to every 20 μl cell lysate for luminometer detection.

recombinant human HDAC8 = target: T2, recombinant human HDAC8 (Homo sapiens, UniProt Q9BY41); experiment: HDAC8 inhibition: recombinant HDAC8 fluorometric assay; assay type: biochemical
T2 construct: made in house; host or cells: insect cells
T2 sequence (Q9BY41 1-377): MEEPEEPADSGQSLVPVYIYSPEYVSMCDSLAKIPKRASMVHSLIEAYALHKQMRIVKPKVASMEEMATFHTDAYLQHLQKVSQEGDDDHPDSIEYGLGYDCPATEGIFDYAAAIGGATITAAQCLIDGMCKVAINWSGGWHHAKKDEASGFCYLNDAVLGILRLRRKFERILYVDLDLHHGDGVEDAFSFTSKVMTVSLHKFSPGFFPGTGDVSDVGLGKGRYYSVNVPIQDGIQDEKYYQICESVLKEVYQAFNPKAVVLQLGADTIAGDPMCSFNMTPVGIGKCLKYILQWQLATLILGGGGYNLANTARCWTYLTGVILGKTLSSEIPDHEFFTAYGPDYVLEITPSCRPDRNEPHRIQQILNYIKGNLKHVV
Protocol: HDAC8 Inhibition by Novel Compounds: Recombinant HDAC8 Fluorometric Assay.
A competitive inhibitory assay of HDAC8 was carried out by using recombinant HDAC8 and a commercial substrate Ac-Arg-His-Lys-Lys(ε-acetyl)-AMC.
Compounds were tested for their ability to inhibit histone deacetylase 8 using an in vitro deacetylation assay. The enzyme source for this assay was recombinant human HDAC8 protein expressed and purified from insect cells. […] The substrate consisted of a commercial product Ac-Arg-His-Lys-Lys(ε-acetyl)-AMC (substrate is available from Cayman Chemical). […] 1 μl of half-log diluted compounds were added into wells and incubated for 15 min at rt. After that, 8 μl of substrate solution was transferred to the wells and incubated for 30 min at rt. After deacetylation of the substrate by incubation with HDAC8 enzyme, subsequent exposure to a developing reagent produced a fluorophore that was directly proportional to the level of deacetylation. […] The fluorescence signal was measured by a FlexStation3 plate reader (excitation wave length 340-360 nm; emission wave length 440-465 nm). The HDAC8 IC50 was calculated after normalization and curve fitting using XLfit4.0 software. Inhibition %=[Mean(top)−signal(sample)]×100/[Mean(top)−Mean(bottom)].

[2] = recombinant human HDAC8, substrate Ac-Arg-His-Lys-Lys(ε-acetyl)-AMC, read-out: HDAC8 IC50

SMILES	EC50 (HDAC6) [nM]	p21 RP3 [1]	p21 RP10 [1]	p21 RP30 [1]	IC50 (recombinant human HDAC8; [2]) [nM]	IC50 (recombinant human HDAC8; HDAC8 IC50, recombinant human HDAC8, substrate Ac-Arg-His-Lys-Lys(ε-acetyl)-AMC) [nM]
C[C@H]1[C@H](Nc2ccc(C(=O)NO)cc2)CC(=O)N1c1ccc(Cl)cc1 (racemic) [Example 77, Trans-4-[1-(4-Chloro-phenyl)-2-methyl-5-oxo-pyrrolidin-3-ylamino]-N-hydroxy-benzamide]	1250	0.00	0.07	0.07	850	
O=C(NO)c1ccc(NC2CCN(c3ccccc3)C2=O)cc1 (stereo not shown) [Example 1]	5860	0.08	0.08	0.15		810
O=C(NO)c1ccc(NC2CCN(c3ccccc3F)C2=O)cc1 (stereo not shown) [Example 2, 4-[1-(2-Fluoro-phenyl)-2-oxo-pyrrolidin-3-ylamino]-N-hydroxy-benzamide]	4020	0.33	0.26	0.46	840	
O=C(NO)c1ccc(NC2CCN(c3cccc(F)c3)C2=O)cc1 (stereo not shown) [Example 3, 4-[1-(3-Fluoro-phenyl)-2-oxo-pyrrolidin-3-ylamino]-N-hydroxy-benzamide]	1560	0.18	0.06	0.08	1090	
O=C(NO)c1ccc(NC2CCN(c3ccc(F)cc3)C2=O)cc1 (stereo not shown) [Example 4, 4-[1-(4-Fluoro-phenyl)-2-oxo-pyrrolidin-3-ylamino]-N-hydroxy-benzamide]	3890	0.43	0.31	0.48	890	
O=C(NO)c1ccc(NC2CCN(c3ccccc3Cl)C2=O)cc1 (stereo not shown) [Example 5, 4-[1-(2-Chloro-phenyl)-2-oxo-pyrrolidin-3-ylamino]-N-hydroxy-benzamide]	6670	−0.01	0.06	0.08	370	
O=C(NO)c1ccc(NC2CCN(c3cccc(Cl)c3)C2=O)cc1 (stereo not shown) [Example 6, 4-[1-(3-Chloro-phenyl)-2-oxo-pyrrolidin-3-ylamino]-N-hydroxy-benzamide]	2820	0.03	0.15	0.15	720	
COc1cccc(N2CCC(Nc3ccc(C(=O)NO)cc3)C2=O)c1 (stereo not shown) [Example 8, N-Hydroxy-4-[1-(3-methoxy-phenyl)-2-oxo-pyrrolidin-3-ylamino]-benzamide]	4120	0.09	0.15	0.29	590	
CC(C)Oc1cccc(N2CCC(Nc3ccc(C(=O)NO)cc3)C2=O)c1 (stereo not shown) [Example 9, N-Hydroxy-4-[1-(3-isopropoxy-phenyl)-2-oxo-pyrrolidin-3-ylamino]-benzamide]	1730	0.24	0.13	0.23	1300	
CCCCc1ccc(N2CCC(Nc3ccc(C(=O)NO)cc3)C2=O)cc1 (stereo not shown) [Example 15, 4-[1-(4-Butyl-phenyl)-2-oxo-pyrrolidin-3-ylamino]-N-hydroxy-benzamide]	4900	0.09	0.06	0.04		
O=C(NO)c1ccc(NC2CCN(c3ccc(Cl)c(Cl)c3)C2=O)cc1F (stereo not shown) [Example 68, 4-[1-(3,4-Dichloro-phenyl)-2-oxo-pyrrolidin-3-ylamino]-2-fluoro-N-hydroxy-benzamide]	6670	−0.05	0.02	0.01		
CC(C)(c1ccccc1)N1CC(Nc2ccc(C(=O)NO)cc2)CC1=O (stereo not shown) [Example 76, N-Hydroxy-4-[1-(1-methyl-1-phenyl-ethyl)-5-oxo-pyrrolidin-3-ylamino]-benzamide]	3020				1880	
COc1ccc(C(=O)N2CCC(Nc3ccc(C(=O)NO)cc3)C2)cc1 (stereo not shown) [Example 90, N-Hydroxy-4-[1-(4-methoxy-benzoyl)-pyrrolidin-3-ylamino]-benzamide]		0.38	0.09	0.05	920	
CC1(Nc2ccc(C(=O)NO)cc2)C(=O)N(CCc2ccccc2)c2ccccc21 (stereo not shown) [Example 94, N-hydroxy-4-(3-methyl-2-oxo-1-phenethyl-2,3-dihydro-1H-indol-3-ylamino)-benzamide]	150				980	
